Measured values as given in patent US8853194B2, “Sterol derivatives and their synthesis and use” (priority 2009, dated 2014).
Read-outs that look alike come from different tables or passages of the source.

What was measured:
VEGF = conditions: 16 mg/kg (low dose group), OD at 450 nm
Method: Before taking tumors out, blood was collected by eye bleeding from mice in the four groups, i.e. the negative control group, the positive CTX control group, the high dose (32 mg/kg) group and the low dose (16 mg/kg) group.
1.1 Preparing reagents, samples and standards;
1.2 Adding the prepared samples and standards, and reacting for 90 minutes at 37° C.;
1.3 Washing the plate twice, adding biotinylated antibody working solution, and reacting for 60 minutes at 37° C.;
1.4 Washing the plate for three times, adding ABC working solution, and reacting for 30 minutes at 37° C.;
1.5 Washing the plate for five times, adding TMB color liquid, and reacting in dark for 15 minutes at 37° C.;
1.6 Adding TMB stop solution, and measuring OD value at 450 nm.

Bcl-2 = conditions: tumor tissue, ratio to β-actin, n=3
Method: Detecting the activity of tumor cells VEGF, P53, P21, Bcl-2 (taking β-Actin as an internal reference)
Using Protein Electrophoresis (Western Blot) Method
A bean sized tumor tissue dissected previously was shredded and put into a pre-cooled tissue grinder. 400 μl tissue lysis solution was added. After 10 minutes carefully grinding, the mixture was transferred into a 1.5 ml centrifugal tube, and then, after intensely vortexing the tube for 15 seconds, the mixture was placed on ice for 10 minutes and repeatedly oscillated. After centrifuging 20 minutes (12000 rpm), the supernatant was collected, transferred into a pre-cooled Eppendorf tube, and then separately charged and frozen stored at −80° C. for detecting the activity level of various antibodies.
3.4.3 Reaction with the first antibody: The first antibody was diluted by TBST solution at a ratio of 1:200, and then reacted with the PVDF film at 4° C. for a night. In the next day, after balanced at room temperature for one hour, the reaction mixture was washed with TBST for 3 times.

CAM vessels = test: CAM assay, effect on tumor angiogenesis; type: in vivo, German Roman embryonated eggs; conditions: 72 hours incubation
Method: A sterile gelatin sponge, previously made into disks with diameter of 5 mm by a hole puncher, was used as sample carrier. […] There were 3 dose groups, wherein 5 μl (low dose group, with a dose volume of 2 μg/embryo), 10 μl (middle dose group, with a dose volume of 4 μg/embryo), and 20 μl (high dose group, with a dose volume of 8 μg/embryo) of the solution were added respectively into gelatin sponge slices by a quantitative liquid transfer. The sponge slices were dried in the sterile environment.
A sterilized egg was placed into a 37° C. incubator with its air chamber upward. In the 7th day, the embryo was positioned on a super-clean bench and sterilized by ethanol, and then it was drilled by a dental drill to form a little hole in the top of the embryo. Egg shell and shell membrane around the hole were carefully removed to form an opening of about 1.2 cm×1.2 cm; after determining a sample-adding site, the air chamber membrane was carefully pricked at the separation place between the chamber and the yolk by a syringe needle; through the prick hole 1-2 drops of sterilized water was injected, which made the chamber membrane and the CAM membrane be separated; after gently removing the upper layer of the chamber membrane with forceps, the CAM membrane in the lower layer was exposed.
A drug-containing carrier was placed, at the junction area of the CAM membrane and the yolk sac membrane, on a site where vessels were less, and then sealed with sterilized transparent adhesive tape to continue to incubate for 72 hours.
After the incubation, the transparent adhesive tape stopped on the top of the air chamber was gently removed by forceps; a mixture of methanol/acetone (1:1, 1-2 ml) was gently added; the room temperature was remained constant for 10 minutes. Then, the CAM membrane was carefully peeled off and placed on a glass slide for observing and taking photos. The effect of the compound on angiogenesis was assessed by counting the numbers of large, middle, small blood vessels radiated by the carrier.

mouse hepatoma cells H22 = tested on: mouse hepatoma cells H22
Method: (§1) Ascites mice S180 and H22 that had been vaccinated 7 days were sacrificed by cervical, from which ascites were obtained under sterile conditions respectively; the obtained ascites were washed twice with culture medium RPMI1640, and prepared to a 2×10^7/ml suspension in sterile physiological saline. The suspension of cell S180 was inoculated subcutaneously in the right axillas of 40 mice (0.1 ml/mouse) to produce solid tumor models; while the suspension of cell H22 was inoculated in abdominal cavities of 40 mice (0.2 ml/mouse) by conditional means under sterile conditions to produce ascites tumor models.
(§2) 90 mice were randomly divided into 9 groups of 3 types, wherein the first type group was a normal control group, the second type groups were S180 solid tumor groups including a positive (cyclophosphamide) control group, a negative control group, a low dose group and a high dose group, and the third type groups were H22 ascites groups including a positive (cyclophosphamide) control group, a negative control group, a low dose group and a high dose group. There were 10 mice in each group. The experiment was repeated for three times.
(§3) […], the negative control group was injected same volume of corn oil, and the positive control group was injected cyclophosphamide injection solution with the dose of 0.02 g/(Kg.d). The used injection volume was 0.1 ml/mouse and the injection was given as intraperitoneal injection every other day for 15 days. During the 15 days, general activities, fur, feces, etc. of the mice were daily observed. 24 hours after the last administration, mice that had been inoculated subcutaneously with S180 were sacrificed by cervical, from which tumors, thymus and spleen were taken out. After the last administration, mice that had been inoculated in abdominal cavities with H22 were conventionally bred continually, weighted and observed the survival time every day until all the mice in the negative group were dead.
24 hours after the inoculation of ascites, the weight and the amount of abdominal circumference of the mice in the groups of ascites models were measured. The drug administration and breeding were continued according to different groups, the weight and the abdominal circumference were measured daily until one day before death. The weight increase (g) and abdominal-circumference increase (cm) were calculated. The experiment started on the day of tumor inoculation and ended on the day when all the mice in the negative control group were dead; the time of deaths were recorded, and the survival extending rate was calculated. Survival Extending Rate(%)=[(mean survival days of treatment group−mean survival days of negative control group)/mean survival days of control group]×100%
(§4) After finishing the administration in all mice in the solid tumor group, the mice were sacrificed and their spleens and livers were weighed by electronic balance. The spleen index was equivalent to the spleen weight (mg) of mice in each group divided by the weight of the mice, while the liver index was equivalent to the liver weight […] divided by the weight (g) of the mice.

mouse sarcoma cells S180 = tested on: mouse sarcoma cells S180
Method: as §1, §2, §3, §4
On the next day after drug withdrawal, the mice in the solid-tumor […] group were weighed and sacrificed by cervical, wherein the serum was collected by eye bleeding for later use in subsequent experiments. Tumor tissues were dissected and weighed by electronic balance. The tumor inhibition rate was calculated as follows. Tumor Inhibition Rate(%)=[(mean tumor weight of negative control group−mean tumor weight of treatment group)/mean tumor weight of control group]×100%

[1] = from LD50 and anti-tumor dose in mice
Source text: I. Experiment Item: the anti-tumor therapeutic index of CL168

[2] = H22 ascites mice, low dose 16 mg/kg i.p. every other day for 15 days
[3] = S180 sarcoma mice, low dose 16 mg/kg i.p. every other day for 15 days

In the case of `CC(C)CCC[C@@H](C)[C@H]1CC[C@@H]2[C@]1(C)CC[C@H]1[C@]23C=C[C@]2(CC(=O)CC[C@]12C)OO3` [CL168-6, 5α,8α-cyclicobioxygen-6-cholesten-3-one], the “OD value of serum VEGF” value (VEGF) is reported as 0.2064 ± 0.0114^□, the “relative expression level of bcl-2” value (Bcl-2) is reported as 0.75±0.04 and the “Large vessels (number of the vessels)” value (CAM vessels; 2 ug/embryo) is reported as 3.5 ± 1.8. For the same compound, the “Middle vessels (number of the vessels)” value (CAM vessels; 2 ug/embryo) was 13.2 ± 3.7, the “Small vessels (number of the vessels)” value (CAM vessels; 2 ug/embryo) was 8.8 ± 2.3 and the “Large vessels (number of the vessels)” value (CAM vessels; 4 ug/embryo) was 3.6 ± 1.9. For the same compound, the “Middle vessels (number of the vessels)” value (CAM vessels; 4 ug/embryo) was 11.2 ± 3.2, the “Small vessels (number of the vessels)” value (CAM vessels; 4 ug/embryo) was 6.5 ± 2.5 and the “Large vessels (number of the vessels)” value (CAM vessels; 8 ug/embryo) was 2.5 ± 2.0. For the same compound, the “Middle vessels (number of the vessels)” value (CAM vessels; 8 ug/embryo) was 12.6 ± 5.6, the “Small vessels (number of the vessels)” value (CAM vessels; 8 ug/embryo) was 4.0 ± 2.8 and the “Abdominal circumference increase (cm)” value (mouse hepatoma cells H22; H22 ascites mice, high dose 32 mg/kg i.p. every other day for 15 days) was 2.32 ± 0.71^(2)(4) cm. For the same compound, the “Abdominal circumference increase (cm)” value (mouse hepatoma cells H22; [2]) was 2.84 ± 0.34^(2)(3) cm, the “Survival extending rate (%)” value (mouse hepatoma cells H22; [2]) was 37.11% and the “Survival time (day)” value (mouse hepatoma cells H22; [2]) was 13.3 ± 1.77^(4) day. The “Weight increase (g)” value (mouse hepatoma cells H22; [2]) was 7.16 ± 1.39^(4) g, the “Liver index (100 g/g)” value (mouse hepatoma cells H22; mouse, in vivo, ip, 16 mg/kg) was 4.9 ± 0.24^(1)(4) 100 g/g and the “Spleen index (mg/g)” value (mouse hepatoma cells H22; mouse, in vivo, ip, 16 mg/kg) was 6.53 ± 1.29^(2)(4) mg/g. For the same compound, the “Liver index (100 g/g)” value (mouse hepatoma cells H22; mouse, in vivo, ip, 32 mg/kg) was 5.19 ± 0.64^(2)(4) 100 g/g, the “Spleen index (mg/g)” value (mouse hepatoma cells H22; mouse, in vivo, ip, 32 mg/kg) was 5.76 ± 0.96^(2)(4) mg/g and the “Survival extending rate (%)” value (mouse hepatoma cells H22; mouse, in vivo, ip, 32 mg/kg) was 51.55%. For the same compound, the “Survival time (day)” value (mouse hepatoma cells H22; mouse, in vivo, ip, 32 mg/kg) was 14.7 ± 1.41^(4) day, the “Weight increase (g)” value (mouse hepatoma cells H22; mouse, in vivo, ip, 32 mg/kg) was 5.05 ± 1.88^(4) g and the “Tumor weight (g)” value (mouse sarcoma cells S180; S180 sarcoma mice, high dose 32 mg/kg i.p. every other day for 15 days) was 0.629 ± 0.133^(3) g. The “Tumor inhibition rate (%)” value (mouse sarcoma cells S180; S180 sarcoma mice, high dose 32 mg/kg i.p. every other day for 15 days, 32 mg/kg) was 54.58%, the “Tumor weight (g)” value (mouse sarcoma cells S180; [3]) was 0.771 ± 0.407^ g and the “Weight increase” value (mouse sarcoma cells S180; [3]) was 6.71 ± 1.22 g. For the same compound, the “Tumor inhibition rate (%)” value (mouse sarcoma cells S180; S180 sarcoma mice, low dose 16 mg/kg i.p. every other day for 15 days, 16 mg/kg) was 44.33%, the “Liver index (100 g/g)” value (mouse sarcoma cells S180; mouse, in vivo, ip, 16 mg/kg) was 4.45 ± 0.19 100 g/g and the “Spleen index (mg/g)” value (mouse sarcoma cells S180; mouse, in vivo, ip, 16 mg/kg) was 5.32 ± 0.68^(2)(4) mg/g. For the same compound, the “Liver index (100 g/g)” value (mouse sarcoma cells S180; mouse, in vivo, ip, 32 mg/kg) was 4.38 ± 0.13 100 g/g, the “Spleen index (mg/g)” value (mouse sarcoma cells S180; mouse, in vivo, ip, 32 mg/kg) was 5.34 ± 0.73^(2)(4) mg/g and the “Weight increase” value (mouse sarcoma cells S180; mouse, in vivo, ip, 32 mg/kg) was 6.00 ± 1.11 g. The “anti-tumor therapeutic index (TI)” value [1] was 49.3 and the “anti-tumor therapeutic index (TI)” value ([1]; listed as CL168) was “about 49.3”.
